Key:
[1] = tested on: pancreatitis induced by caerulein; experiment: Therapeutic effect on caerulein-induced pancreatitis, pancreas tissue morphology; assay type: in vivo, C57BL/6 mice; conditions: intravenous injection six hours after the final caerulein administration; 10, 20, 40 mg/kg
Method: (§1) In this invention, C57BL/6 mice at the body weight of about 22±2 g were used. All the mice were raised in a sterile animal laboratory with constant temperature (22˜26[…]) and humidity (55˜60%). The mice were adapted for 1 week while feeding with normal solid feed (Samtaco Korea) and water. All the experiments were performed according to the guide for the care and use of laboratory animals set by Wonkwang University.

[2] = tested on: NQO-1 knock out mouse; experiment: Morphological changes of pancreas tissue in NQO1 knock out mouse; assay type: in vivo; conditions: 40 mg/kg plus caerulein, vs caerulein treated group
Excerpt: β-lapachone is known as a co-substrate of NQO-1 (NAD(P)H: quinone oxidoreductase-1). So, in order to confirm whether or not the pancreas protection effect of β-lapachone was via the activation pathway of NQO-1, the morphological changes of pancreas were investigated in NQO-1 knock out mouse.
Then, the pancreas tissues were stained with hematoxylin-eosin by the same manner as described in Experimental Example 5, followed by observation under optical microscope.

[3] = tested on: IL-1β; experiment: Serum IL-1β concentration in NQO-1 knock out mouse; assay type: in vivo; conditions: NQO1 knock out mouse; caerulein treated group vs β-lapachone cotreated group
Method: (§2) To confirm whether or not the protective effect of β-lapachone on pancreatitis was via the activation pathway of NQO-1 enzyme, the present inventors investigated the weight of pancreas, the activities of serum amylase and lipase, and the concentration of serum IL-1β in NQO-1 knock out mouse.
(§3) Then, the ratio of the pancreas weight to the body weight was calculated by the same manner as described in Experimental Example 2. The activities of serum amylase and lipase were measured using a kit by the same manner as described in Experimental Example 3.

[4] = tested on: amylase; experiment: Serum amylase activity, caerulein mediated pancreatitis model; assay type: in vivo; conditions: C57BL/6 mice, oral 10, 20, 40 mg/kg one day before caerulein; vs caerulein treated group
Method: as §1
(§4) Serum was obtained and then OD595 and OD412 were measured by using amylase activity analysis kit (DAMY-100; BioAssay Systems, USA) and lipase activity analysis kit (DLPS-100; BioAssay Systems, USA) to investigate the activities of amylase and lipase.

[5] = tested on: IL-1β; experiment: Expression of IL-1β in pancreas by real-time PCR, caerulein mediated pancreatitis model; assay type: in vivo; conditions: C57BL/6 mice, oral treatment one day before caerulein, vs caerulein treated group
Method: as §1
(§5) Serum was obtained from the animal model and then the level of serum IL-1β was measured by using mouse IL-1β ELISA kit (BD, USA). First, nasal lavage fluid or diluted serum was loaded in the 96-well plate coated with the mouse IL-1β specific antibody, followed by reaction at room temperature for 2 hours. After washing the plate, biotin conjugate was added thereto, followed by reaction at room temperature for 1 hour. After washing the plate, streptavidin-HRP working solution was added thereto, followed by reaction. After washing the plate again, stabilized chromogen was added thereto, followed by reaction. Then, OD450 was measured. In addition, the expression of IL-1β in pancreas was confirmed by real-time PCR in each pancreas tissue. To extract total RNA, 1 mL of TRIzol (Invitrogen, USA) was added to 20 mg of each pancreas tissue, which stood on ice for 5 minutes to lyse cells. […] The RNA was quantified by using Nanodrop 2000 (Thermo, USA). […]

[6] = tested on: lung damage induced by caerulein; experiment: Lung damage induced by pancreatitis, C57/BL6 mouse; assay type: in vivo; conditions: cotreatment 10, 20, 40 mg/kg
[7] = tested on: MCP-1; experiment: Expression of MCP-1 in pancreas by RT-PCR, caerulein mediated pancreatitis model; assay type: in vivo; conditions: C57BL/6 mice, oral 10, 20, 40 mg/kg one day before caerulein, vs caerulein treated group
Method: as §1

[8] = tested on: caerulein mediated pancreatitis; experiment: Morphological changes of pancreas tissue (hematoxylin-eosin, histological scores), preventive treatment; assay type: in vivo; conditions: C57/BL6 mouse, oral 10, 20, 40 mg/kg one day before caerulein; dose-dependently
Method: as §1
Pancreas tissues were separated, fixed in 10% formalin for 24 hours at 4[…], demineralized with 10% ethylenediaminetetra-acetic acid (EDTA, pH 7.4) solution, washed, dehydrated, embedded in paraffin and cut into 5 μm sections. The sections were stained with hematoxylin-eosin, followed by observation under optical microscope.

[9] = tested on: lipase; experiment: Serum lipase activity, caerulein mediated pancreatitis model; assay type: in vivo; conditions: C57BL/6 mice, oral 10, 20, 40 mg/kg one day before caerulein; vs caerulein treated group
Method: as §1, §4

[10] = tested on: caerulein mediated pancreatitis; experiment: Ratio of pancreas weight to body weight, caerulein mediated pancreatitis model; assay type: in vivo; conditions: C57BL/6 mice, oral 10, 20, 40 mg/kg one day before caerulein (50 μg/kg i.p. x6); vs caerulein treated group
Method: as §1, with “University. […] When pancreatitis is developed, the weight of pancreas is known to be increased because of edema. Thus, blood was extracted from all the animals finished with the experiment and then the ratio of the pancreas weight to the body weight was measured. […] After blood was extracted, the pancreas was cut out and the weight of the pancreas to the body weight was measured by the pancreas weight (wet pancreas weight)/body weight (wet body weight) formula of Grady method.” for “University.”

[11] = tested on: NQO-1 knock out mouse; experiment: Lung damage induced by pancreatitis, NQO-1 knock out mouse; assay type: in vivo; conditions: cotreatment with β-lapachone
[12] = tested on: NQO-1 knock out mouse; experiment: Ratio of pancreas weight to body weight in NQO-1 knock out mouse; assay type: in vivo; conditions: NQO1 knock out mouse; caerulein treated group vs β-lapachone cotreated group
Method: as §2, §3

[13] = tested on: amylase; experiment: Serum amylase activity in NQO-1 knock out mouse; assay type: in vivo; conditions: NQO1 knock out mouse; caerulein treated group vs β-lapachone cotreated group
Method: as §2, §3

[14] = tested on: IL-1β; experiment: Serum IL-1β level by ELISA, caerulein mediated pancreatitis model; assay type: in vivo; conditions: C57BL/6 mice, oral 10, 20, 40 mg/kg one day before caerulein, dose-dependently, vs caerulein treated group
Method: as §1, §5

[15] = tested on: lipase; experiment: Serum lipase activity in NQO-1 knock out mouse; assay type: in vivo; conditions: NQO1 knock out mouse; caerulein treated group vs β-lapachone cotreated group
Method: as §2, §3

CC1(C)CCC2=C(O1)c1ccccc1C(=O)C2=O [β-lapachone]
edema, inflammation, and cell necrosis of pancreas tissues induced by caerulein (histological scores) [1]: all reduced
edema, inflammation, and cell necrosis of pancreas tissues [2]: not reduced
concentration of serum IL-1β [3]: not much different
amylase activity in serum [4]: significantly reduced dose-dependently
expression of IL-1β in pancreas [5]: significantly reduced
lung damage induced by caerulein [6]: inhibited
expression of MCP-1 in pancreas [7]: reduced dose-dependently
edema, inflammation, and cell necrosis of pancreas tissues induced by caerulein (histological scores) [8]: all inhibited
lipase activity in serum [9]: significantly reduced dose-dependently
ratio of pancreas weight/body weight [10]: significantly reduced dose-dependently
lung damage induced by caerulein [11]: not inhibited
ratio of pancreas weight/body weight [12]: not significantly different
activity of serum amylase [13]: not significantly different
serum IL-1β level [14]: significantly reduced
activity of serum lipase [15]: not significantly different

CC1OC2=C(C(=O)C(=O)c3ccccc32)C1(C)C (centres unmarked) [dunnione]
amylase activity in serum [4]: significantly reduced dose-dependently
expression of IL-1β in pancreas [5]: significantly reduced
lung damage induced by caerulein [6]: significantly inhibited
expression of MCP-1 in pancreas [7]: reduced dose-dependently
edema, inflammation, and cell necrosis of pancreas tissues induced by caerulein (histological scores) [8]: all inhibited
lipase activity in serum [9]: significantly reduced dose-dependently
ratio of pancreas weight/body weight [10]: significantly reduced dose-dependently
serum IL-1β level [14]: significantly reduced

From patent publication US20200155500A1, “COMPOSITION FOR PREVENTING AND TREATING PANCREATITIS CONTAINING NAPHTHOQUINONE-BASED COMPOUND AS ACTIVE INGREDIENT” (NADIANBIO Ltd., priority 2015, published 2020)
